According to US20120329787A1, “FUNGICIDAL PYRANONES AND OXAZINONES” (E.I. DU PONT DE NEMOURS AND COMPANY, priority 2011, published 2012):

Columns and labels:
Type in all cases: in vivo
[1] = system: Erysiphe graminis f. sp. tritici; assay: Test I: wheat powdery mildew, spray on wheat seedlings the day before inoculation; conditions: 200 ppm test suspension; for pest or weed control at 200 ppm: Blumeria graminis, 168 h, read-out: Test I rating (100 = 100% disease control, 0 = no disease control)
Excerpt: General protocol for preparing test suspensions for Tests A-I: the test compounds were first dissolved in acetone in an amount equal to 3% of the final volume and then suspended at the desired concentration (in ppm) in acetone and purified water (50/50 mix by volume) containing 250 ppm of the surfactant Trem® 014 (polyhydric alcohol esters). The resulting test suspensions were then used in Tests A-I. Spraying a 200 ppm test suspension to the point of run-off on the test plants was the equivalent of a rate of 500 g/ha. […] (An asterisk “*” next to the rating value indicates a 40 ppm test suspension was used.) The test suspension was sprayed to the point of run-off on wheat seedlings. The following day, the seedlings were inoculated with a spore dust of Erysiphe graminis f. sp. tritici, (the causal agent of wheat powdery mildew) and incubated in a growth chamber at 20° C. for 7 days, after which time visual disease ratings were made. […] A dash (-) indicates no test results. All results are for 200 ppm except where followed by an asterisk “*”, which indicates a 40 ppm.

[2] = system: Puccinia recondita f. sp. tritici; assay: Test H: wheat leaf rust, spray on wheat seedlings the day before inoculation; conditions: 200 ppm test suspension, sprayed before inoculation; for pest or weed control at 200 ppm: Puccinia recondita, 168 h, read-out: Test H rating (100 = 100% disease control, 0 = no disease control)
Excerpt: General protocol for preparing test suspensions for Tests A-I: the test compounds were first dissolved in acetone in an amount equal to 3% of the final volume and then suspended at the desired concentration (in ppm) in acetone and purified water (50/50 mix by volume) containing 250 ppm of the surfactant Trem® 014 (polyhydric alcohol esters). The resulting test suspensions were then used in Tests A-I. Spraying a 200 ppm test suspension to the point of run-off on the test plants was the equivalent of a rate of 500 g/ha. […] (An asterisk “*” next to the rating value indicates a 40 ppm test suspension was used.) The test suspension was sprayed to the point of run-off on wheat seedlings. The following day, the seedlings were inoculated with a spore suspension of Puccinia recondita f. sp. tritici (the causal agent of wheat leaf rust) and incubated in a saturated atmosphere at 20° C. for 24 h, and then moved to a growth chamber at 20° C. for 6 days, after which time visual disease ratings were made Results for Tests A-I are given in Table A. […] A dash (-) indicates no test results. All results are for 200 ppm except where followed by an asterisk “*”, which indicates a 40 ppm.

Alternaria solani = assay: Test B: tomato early blight, spray on tomato seedlings the day before inoculation; conditions: 200 ppm test suspension; for pest or weed control at 200 ppm: Alternaria solani, 168 h, read-out: Test B rating (100 = 100% disease control, 0 = no disease control)
Excerpt: General protocol for preparing test suspensions for Tests A-I: the test compounds were first dissolved in acetone in an amount equal to 3% of the final volume and then suspended at the desired concentration (in ppm) in acetone and purified water (50/50 mix by volume) containing 250 ppm of the surfactant Trem® 014 (polyhydric alcohol esters). The resulting test suspensions were then used in Tests A-I. Spraying a 200 ppm test suspension to the point of run-off on the test plants was the equivalent of a rate of 500 g/ha. […] (An asterisk “*” next to the rating value indicates a 40 ppm test suspension was used.) The test suspension was sprayed to the point of run-off on tomato seedlings. The following day, the seedlings were inoculated with a spore suspension of Alternaria solani (the causal agent of tomato early blight) and incubated in a saturated atmosphere at 27° C. for 48 h, and then moved to a growth chamber at 20° C. for 5 days, after which time visual disease ratings were made. […] A dash (-) indicates no test results. All results are for 200 ppm except where followed by an asterisk “*”, which indicates a 40 ppm.

Botrytis cinerea = assay: Test A: tomato Botrytis, spray on tomato seedlings the day before inoculation; conditions: 200 ppm test suspension; for pest or weed control at 200 ppm: Botrytis cinerea, 120 h, read-out: Test A rating (100 = 100% disease control, 0 = no disease control)
Excerpt: General protocol for preparing test suspensions for Tests A-I: the test compounds were first dissolved in acetone in an amount equal to 3% of the final volume and then suspended at the desired concentration (in ppm) in acetone and purified water (50/50 mix by volume) containing 250 ppm of the surfactant Trem® 014 (polyhydric alcohol esters). The resulting test suspensions were then used in Tests A-I. Spraying a 200 ppm test suspension to the point of run-off on the test plants was the equivalent of a rate of 500 g/ha. […] (An asterisk “*” next to the rating value indicates a 40 ppm test suspension was used.) The test suspension was sprayed to the point of run-off on tomato seedlings. The following day, the seedlings were inoculated with a spore suspension of Botrytis cinerea (the causal agent of tomato Botrytis) and incubated in a saturated atmosphere at 20° C. for 48 h, and then moved to a growth chamber at 24° C. for 3 additional days, after which time visual disease ratings were made. […] A dash (-) indicates no test results. All results are for 200 ppm except where followed by an asterisk “*”, which indicates a 40 ppm.

Septoria nodorum = assay: Test E: Septoria glume blotch, spray on wheat seedlings the day before inoculation; conditions: 200 ppm test suspension; for pest or weed control at 200 ppm: Parastagonospora nodorum, 264 h, read-out: Test E rating (100 = 100% disease control, 0 = no disease control)
Excerpt: General protocol for preparing test suspensions for Tests A-I: the test compounds were first dissolved in acetone in an amount equal to 3% of the final volume and then suspended at the desired concentration (in ppm) in acetone and purified water (50/50 mix by volume) containing 250 ppm of the surfactant Trem® 014 (polyhydric alcohol esters). The resulting test suspensions were then used in Tests A-I. Spraying a 200 ppm test suspension to the point of run-off on the test plants was the equivalent of a rate of 500 g/ha. […] (An asterisk “*” next to the rating value indicates a 40 ppm test suspension was used.) The test suspension was sprayed to the point of run-off on wheat seedlings. […] A dash (-) indicates no test results. All results are for 200 ppm except where followed by an asterisk “*”, which indicates a 40 ppm.

Septoria tritici = assay: Test F: wheat leaf blotch, spray on wheat seedlings the day before inoculation; conditions: 200 ppm test suspension; for pest or weed control at 200 ppm: Zymoseptoria tritici, 504 h, read-out: Test F rating (100 = 100% disease control, 0 = no disease control)
Excerpt: General protocol for preparing test suspensions for Tests A-I: the test compounds were first dissolved in acetone in an amount equal to 3% of the final volume and then suspended at the desired concentration (in ppm) in acetone and purified water (50/50 mix by volume) containing 250 ppm of the surfactant Trem® 014 (polyhydric alcohol esters). The resulting test suspensions were then used in Tests A-I. Spraying a 200 ppm test suspension to the point of run-off on the test plants was the equivalent of a rate of 500 g/ha. […] (An asterisk “*” next to the rating value indicates a 40 ppm test suspension was used.) The test suspension was sprayed to the point of run-off on wheat seedlings. The following day, the seedlings were inoculated with a spore suspension of Septoria tritici (the causal agent of wheat leaf blotch) and incubated in a saturated atmosphere at 24° C. for 48 h, and then the seedlings were moved to a growth chamber at 20° C. for 19 additional days, after which time visual disease ratings were made. […] A dash (-) indicates no test results. All results are for 200 ppm except where followed by an asterisk “*”, which indicates a 40 ppm.

[3] = system: Puccinia recondita f. sp. tritici; assay: Test G: wheat leaf rust, spray on wheat seedlings after inoculation (curative); conditions: 200 ppm test suspension, sprayed after inoculation; for pest or weed control at 200 ppm: Puccinia recondita, 96 h, read-out: Test G rating (100 = 100% disease control, 0 = no disease control)
Excerpt: General protocol for preparing test suspensions for Tests A-I: the test compounds were first dissolved in acetone in an amount equal to 3% of the final volume and then suspended at the desired concentration (in ppm) in acetone and purified water (50/50 mix by volume) containing 250 ppm of the surfactant Trem® 014 (polyhydric alcohol esters). The resulting test suspensions were then used in Tests A-I. Spraying a 200 ppm test suspension to the point of run-off on the test plants was the equivalent of a rate of 500 g/ha. […] (An asterisk “*” next to the rating value indicates a 40 ppm test suspension was used.) Wheat seedlings were inoculated with a spore suspension of Puccinia recondita f. sp. tritici (the causal agent of wheat leaf rust) and incubated in a saturated atmosphere at 20° C. for 24 h, and then moved to a growth chamber at 20° C. for 2 days. At the end of this time, the test suspension was sprayed to the point of run-off, and then the seedlings were moved to a growth chamber at 20° C. for 4 days after which time visual disease ratings were made. […] A dash (-) indicates no test results. All results are for 200 ppm except where followed by an asterisk “*”, which indicates a 40 ppm.

Structure (SMILES) | pest or weed control at 200 ppm [1] | pest or weed control at 200 ppm [2] | pest or weed control at 200 ppm (Alternaria solani) | pest or weed control at 200 ppm (Botrytis cinerea) | pest or weed control at 200 ppm (Septoria nodorum) | pest or weed control at 200 ppm (Septoria tritici) | pest or weed control at 200 ppm [3] | Test I rating (100 = 100% disease control, 0 = no disease control) [1] | Test H rating (100 = 100% disease control, 0 = no disease control) [2] | Test B rating (100 = 100% disease control, 0 = no disease control) (Alternaria solani) | Test A rating (100 = 100% disease control, 0 = no disease control) (Botrytis cinerea) | Test E rating (100 = 100% disease control, 0 = no disease control) (Septoria nodorum) | Test F rating (100 = 100% disease control, 0 = no disease control) (Septoria tritici) | Test G rating (100 = 100% disease control, 0 = no disease control) [3]
COc1cc(OC)cc(-c2c(-c3ccc(F)cc3F)c(C)oc(=O)c2C)c1 [Compound 48, 5-(2,4-difluorophenyl)-4-(3,5-dimethoxyphenyl)-3,6-dimethyl-2H-pyran-2-one] | 100% | 100% | 97% | 100% | 99% | 100% | 100% |  |  |  |  |  |  | 
COc1cc(F)c(-c2c(-c3cc(OC)cc(OC)c3Cl)c(C)oc(=O)c2C)c(F)c1 [Compound 49] |  |  |  |  |  |  |  | 99% | 100% | 100% | 100% | 99% | 100% | 100%
COc1cc(OC)cc(-c2c(-c3c(F)cccc3F)c(C)oc(=O)c2C)c1 [Compound 51] |  |  |  |  |  |  |  | 96% | 100% | 0% | 100% | 0% | 100% | 75%
COc1cc(OC)c(Cl)c(-c2c(-c3c(F)cccc3F)c(C)oc(=O)c2C)c1Cl [Compound 53] |  |  |  |  |  |  |  | 0% | 88% | 0% | 61% | 0% | 47% | 0%
COc1cc(OC)c(Cl)c(-c2c(-c3ccc(F)cc3Cl)c(C)oc(=O)c2C)c1 [Compound 54, 4-(2-chloro-3,5-dimethoxyphenyl)-5-(2-chloro-4-fluorophenyl)-3,6-dimethyl-2H-pyran-2-one] | 100% | 100% | 96% | 100% | 100% | 100% | 99% |  |  |  |  |  |  | 
